Calls of active or inactive are those of the source. No cut-off for these calls is given here.
What was measured:
[1] = target: T1, 5-hydroxytryptamine receptor 3A (Rattus norvegicus) (UniProt P35563); experiment: Ability to block serotonin (30 uM)-evoked responses at rat 5HT3-alpha receptor expressed in xenopus oocytes; format: functional, cell-based; details: Oocyte
T1 sequence (whole entry): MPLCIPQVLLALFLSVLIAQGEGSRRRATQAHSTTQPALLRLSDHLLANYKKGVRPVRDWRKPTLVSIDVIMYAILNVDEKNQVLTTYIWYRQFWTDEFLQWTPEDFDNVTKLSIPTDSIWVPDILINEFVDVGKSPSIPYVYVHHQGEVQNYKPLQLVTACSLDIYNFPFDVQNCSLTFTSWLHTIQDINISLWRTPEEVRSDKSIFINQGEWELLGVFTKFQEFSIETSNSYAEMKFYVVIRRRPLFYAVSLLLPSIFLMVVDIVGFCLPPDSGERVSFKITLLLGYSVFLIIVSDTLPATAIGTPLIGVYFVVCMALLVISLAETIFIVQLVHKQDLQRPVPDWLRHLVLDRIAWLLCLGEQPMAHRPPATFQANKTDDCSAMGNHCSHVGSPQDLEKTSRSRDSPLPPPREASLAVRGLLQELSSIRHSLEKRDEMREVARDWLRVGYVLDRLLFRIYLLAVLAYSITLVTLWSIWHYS

[2] = target: T2, Neuronal acetylcholine receptor; alpha3/beta4 (Homo sapiens, UniProt P30926+P32297); experiment: Activation responses to that evoked by ACh at human alpha3-beta4 receptor expressed in xenopus oocytes at 1 mM; format: cell-based; details: Oocyte
[3] = target: T2, Neuronal acetylcholine receptor; alpha3/beta4; experiment: Antagonism of ACh-evoked responses at human Nicotinic acetylcholine receptor alpha3-beta4 expressed in xenopus oocytes; format: functional, cell-based, Oocyte
[4] = target: T3, Neuronal acetylcholine receptor subunit alpha-7 (Rattus norvegicus, UniProt Q05941); experiment: Activation responses to that evoked by ACh at human Nicotinic acetylcholine receptor alpha-7 expressed in xenopus oocytes; format: cell-based, Oocyte
Oocyte [5] = experiment: Activation responses to that evoked by ACh at human Nicotinic acetylcholine receptor alpha-3-beta-2-alpha-5 expressed in xenopus oocytes at 100 uM; format: cell-based
[6] = target: T4, Neuronal acetylcholine receptor; alpha3/beta2 (Homo sapiens) (UniProt P17787+P32297); experiment: Activation responses to that evoked by Nicotinic acetylcholine receptor alpha3-beta2 expressed in xenopus oocytes at 1 mM; format: cell-based; details: Oocyte
[7] = target: T4, Neuronal acetylcholine receptor; alpha3/beta2 (Homo sapiens); experiment: Activation responses to that evoked by Nicotinic acetylcholine receptor alpha3-beta2 expressed in xenopus oocytes at 300 uM; format: cell-based; details: Oocyte
[8] = target: T5, Neuronal acetylcholine receptor; alpha4/beta2 (Homo sapiens, UniProt P17787+P43681); experiment: Activation responses to that evoked by ACh at human Nicotinic acetylcholine receptor alpha4-beta2; format: protein-complex assay
[9] = target: T5, Neuronal acetylcholine receptor; alpha4/beta2; experiment: Activation responses to that evoked by ACh at human Nicotinic acetylcholine receptor alpha4-beta2 expressed in xenopus oocytes at 300 uM; format: cell-based; details: Oocyte
[10] = target: T5, Neuronal acetylcholine receptor; alpha4/beta2; experiment: Antagonism of ACh response at Nicotinic acetylcholine receptor alpha4-beta2 expressed in xenopus oocytes; format: functional, cell-based, Oocyte
[11] = target: T1, 5-hydroxytryptamine receptor 3A (Rattus norvegicus); experiment: Effect on rat 5-hydroxytryptamine 3a receptor expressed in xenopus oocytes at concentration up to 100 uM; format: functional, cell-based; details: Oocyte
[12] = target: T3, Neuronal acetylcholine receptor subunit alpha-7; experiment: Inhibition of the response to ACh when coapplied with Nicotinic acetylcholine receptor alpha7
[13] = target: T2, Neuronal acetylcholine receptor; alpha3/beta4; experiment: Responses to that evoked by Nicotinic acetylcholine receptor alpha3-beta4 expressed in xenopus oocytes up to 1 mM; format: cell-based; details: Oocyte
[14] = target: T4, Neuronal acetylcholine receptor; alpha3/beta2 (Homo sapiens); experiment: Responses to that evoked by Nicotinic acetylcholine receptor alpha3-beta2 expressed in xenopus oocytes up to 1 mM; format: cell-based; details: Oocyte
Oocyte [15] = experiment: Antagonism of ACh response at Nicotinic acetylcholine receptor alpha-3-beta-2-alpha-5 receptor expressed in xenopus oocytes up to 1 mM; format: functional, cell-based; details: Homo sapiens
[16] = target: T5, Neuronal acetylcholine receptor; alpha4/beta2; experiment: Responses to that evoked by ACh at human Nicotinic acetylcholine receptor alpha4-beta2 expressed in xenopus oocytes up to 1 mM; format: cell-based; details: Oocyte

T5 sequence (P17787 whole entry): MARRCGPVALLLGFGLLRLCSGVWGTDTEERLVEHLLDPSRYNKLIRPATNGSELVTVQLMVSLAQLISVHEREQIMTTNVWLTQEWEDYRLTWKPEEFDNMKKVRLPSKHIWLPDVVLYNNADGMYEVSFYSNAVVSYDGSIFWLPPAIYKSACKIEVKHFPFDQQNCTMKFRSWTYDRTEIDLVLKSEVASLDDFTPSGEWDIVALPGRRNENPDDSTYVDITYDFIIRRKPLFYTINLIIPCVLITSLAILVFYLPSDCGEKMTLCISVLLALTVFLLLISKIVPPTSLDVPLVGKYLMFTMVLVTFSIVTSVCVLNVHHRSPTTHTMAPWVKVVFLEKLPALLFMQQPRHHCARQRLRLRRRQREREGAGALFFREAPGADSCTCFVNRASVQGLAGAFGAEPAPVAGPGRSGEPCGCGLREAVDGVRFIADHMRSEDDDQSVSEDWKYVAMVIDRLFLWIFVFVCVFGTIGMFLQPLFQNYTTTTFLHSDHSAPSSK
T5 sequence (P43681 whole entry): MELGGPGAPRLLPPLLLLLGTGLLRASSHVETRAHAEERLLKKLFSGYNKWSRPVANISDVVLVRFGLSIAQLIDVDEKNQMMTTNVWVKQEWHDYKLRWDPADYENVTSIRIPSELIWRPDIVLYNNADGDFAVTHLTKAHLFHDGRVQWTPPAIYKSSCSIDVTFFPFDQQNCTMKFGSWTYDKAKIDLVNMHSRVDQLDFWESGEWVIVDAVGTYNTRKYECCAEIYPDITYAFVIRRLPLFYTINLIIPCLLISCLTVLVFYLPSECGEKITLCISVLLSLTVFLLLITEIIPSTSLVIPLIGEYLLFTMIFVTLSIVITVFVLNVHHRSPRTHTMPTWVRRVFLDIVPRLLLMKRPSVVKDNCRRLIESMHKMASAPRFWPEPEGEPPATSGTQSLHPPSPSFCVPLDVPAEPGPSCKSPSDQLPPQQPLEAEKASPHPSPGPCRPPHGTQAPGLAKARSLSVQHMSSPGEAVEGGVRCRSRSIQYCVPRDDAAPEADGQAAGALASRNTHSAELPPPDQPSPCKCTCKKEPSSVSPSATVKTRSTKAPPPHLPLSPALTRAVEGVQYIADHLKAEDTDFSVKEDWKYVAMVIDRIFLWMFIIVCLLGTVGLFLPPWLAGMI
T2 sequence (P30926 whole entry): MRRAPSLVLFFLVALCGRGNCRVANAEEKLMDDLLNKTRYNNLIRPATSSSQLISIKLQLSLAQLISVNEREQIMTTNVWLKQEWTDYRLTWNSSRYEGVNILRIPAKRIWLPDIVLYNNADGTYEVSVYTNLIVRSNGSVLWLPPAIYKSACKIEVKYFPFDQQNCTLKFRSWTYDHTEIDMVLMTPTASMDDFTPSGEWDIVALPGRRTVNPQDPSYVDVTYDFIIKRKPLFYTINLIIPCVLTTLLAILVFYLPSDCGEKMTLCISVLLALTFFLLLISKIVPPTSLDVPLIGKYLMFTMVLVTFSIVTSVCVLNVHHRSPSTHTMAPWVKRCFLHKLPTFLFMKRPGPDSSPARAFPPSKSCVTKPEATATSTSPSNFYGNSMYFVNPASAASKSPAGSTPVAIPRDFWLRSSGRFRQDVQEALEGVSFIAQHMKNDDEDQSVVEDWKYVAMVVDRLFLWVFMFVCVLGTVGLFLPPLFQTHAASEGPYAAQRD
T2 sequence (P32297 whole entry): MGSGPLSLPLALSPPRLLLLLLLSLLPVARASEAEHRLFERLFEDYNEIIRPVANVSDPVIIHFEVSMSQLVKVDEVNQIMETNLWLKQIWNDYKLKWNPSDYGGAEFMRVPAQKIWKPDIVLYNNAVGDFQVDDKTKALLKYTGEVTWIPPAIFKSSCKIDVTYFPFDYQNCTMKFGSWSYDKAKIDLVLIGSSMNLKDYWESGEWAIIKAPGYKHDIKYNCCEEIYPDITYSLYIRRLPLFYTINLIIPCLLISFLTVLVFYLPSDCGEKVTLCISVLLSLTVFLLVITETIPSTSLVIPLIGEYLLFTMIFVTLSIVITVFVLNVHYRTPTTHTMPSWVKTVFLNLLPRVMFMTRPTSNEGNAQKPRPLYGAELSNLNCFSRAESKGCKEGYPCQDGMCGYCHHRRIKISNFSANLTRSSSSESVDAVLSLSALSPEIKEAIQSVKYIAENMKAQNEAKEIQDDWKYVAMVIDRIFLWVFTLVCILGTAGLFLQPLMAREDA
T3 sequence (Q05941 whole entry): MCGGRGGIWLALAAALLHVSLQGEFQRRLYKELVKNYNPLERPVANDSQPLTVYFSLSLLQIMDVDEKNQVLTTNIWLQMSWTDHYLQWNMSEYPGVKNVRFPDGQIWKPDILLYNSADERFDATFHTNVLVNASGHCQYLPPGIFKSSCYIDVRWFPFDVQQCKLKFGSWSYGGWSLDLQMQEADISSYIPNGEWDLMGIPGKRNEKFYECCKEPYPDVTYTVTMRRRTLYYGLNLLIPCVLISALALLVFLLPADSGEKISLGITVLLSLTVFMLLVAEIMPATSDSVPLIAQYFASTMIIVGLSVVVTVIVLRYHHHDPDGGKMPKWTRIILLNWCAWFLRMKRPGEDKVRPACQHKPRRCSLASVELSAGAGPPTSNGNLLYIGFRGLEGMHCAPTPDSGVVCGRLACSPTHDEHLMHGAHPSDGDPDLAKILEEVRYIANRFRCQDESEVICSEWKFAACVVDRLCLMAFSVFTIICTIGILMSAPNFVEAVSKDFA

Structure (SMILES) | Effect [1] | Activation [2] | IC50 [3] | EC50 [4] | Activation (Oocyte [5]) | Activation [6] | Activation [7] | Activation [8] | Activation [9] | IC50 [10] | Effect [11] | IC50 [12] | Effect ([13]; filed as antagonist) | Effect [14] | Effect (Oocyte [15]) | Effect ([16]; filed as antagonist) | Effect [13] | Effect [16]
O=C1NC[C@@]2(CN3CCC2CC3)O1 | inactive | inactive | > 1000 µM | 0.38 µM | 3% | 2% | 1% | 2% | 1% | > 2000 µM | inactive |  |  |  |  |  |  | 
Cc1nccn1CC1CCc2c(c3ccccc3n2C)C1=O (stereo not drawn) [ONDANSETRON] |  |  | 27 µM |  |  |  |  |  |  | 66 µM |  | 25 µM | Antagonist | inactive | inactive | Antagonist |  | 
CN1[C@@H]2CC[C@H]1C[C@@H](OC(=O)c1c[nH]c3ccccc13)C2 [TROPISETRON] |  |  |  |  |  |  |  |  |  | 170 µM |  |  |  | inactive | inactive |  | inactive | inactive

Reference: ChEMBL document CHEMBL1147510 (Bioorg Med Chem Lett, 2004)
